Values quoted from earlier work in patent publication US8486426B2, “Methods and compositions for treatment of dermal conditions” (Kimberly-Clark Worldwide, Inc., priority 2002, dated 2013).

Key:
onychomycosis = settings: for Clinical cure rate: total dystrophic onychomycosis (TDO), oral drug
[1] = system: dermatophytes, yeast and molds that typically cause onychomycosis
[2] = for deaths among liver failure cases: reported by/through 2001
[3] = in vivo

CCC(C)(C)c1ccc(CC(C)CN2C[C@@H](C)O[C@@H](C)C2)cc1 (some centres unmarked) [LOCERYL, amorolfine]
effective in share of the cases (onychomycosis; mild onychomycosis with no matrix involvement, topical 5% solution): about 40%

Cc1cc(C2CCCCC2)n(O)c(=O)c1 [PENLAC, ciclopirox olamine]
in vitro action on fungi [1]: fungicidal
cure rate (onychomycosis; mild to moderate DLSO, average 40% of nail involved, no matrix infection, topical): 7%

CCC(C)n1ncn(-c2ccc(N3CCN(c4ccc(OCC5COC(Cn6cncn6)(c6ccc(Cl)cc6Cl)O5)cc4)CC3)cc2)c1=O (centres unmarked) [SPORANOX, itraconazol]
deaths among pulmonary edema cases ([2]; as of 2001): 13 deaths
cases of liver failure reported ([2]; in vivo): 24 cases
cases of pulmonary edema (probable association) ([2]; in vivo): 58 cases
deaths among liver failure cases [2]: 11 deaths

CN(C/C=C/C#CC(C)(C)C)Cc1cccc2ccccc12 [TERBINAFINE, terbinafine]
cases of liver failure reported ([2]; in vivo): 16 cases
liver transplants reported ([2]; in vivo): 2 liver transplants
deaths among liver failure cases [2]: 11 deaths
persistence after treatment [3]: several months
time at which detectable in the nail bed [3]: one week
Clinical cure rate (onychomycosis): 37%

OC(Cn1cncn1)(Cn1cncn1)c1ccc(F)cc1F [fluconazole]
Clinical cure rate (onychomycosis): about 38%
